From ChEMBL document CHEMBL3046022, “Synthesis and pharmacological screening of some novel chalconyl derivatives of substituted phenyl semicarbazide” (2011)

Tests used:
Format in all cases: functional
Details in all cases: route intraperitoneal
[1] = tested on: Mus musculus; assay: Anticonvulsant activity in Mus musculus albino (mouse) assessed as protection against maximal electroshock-induced seizures at 25 mg/kg, ip administered 30 min prior to electro shock-challenge measured for 2 min relative to control
[2] = tested on: Mus musculus; assay: Anticonvulsant activity in Mus musculus albino (mouse) assessed as protection against maximal electroshock-induced seizures at 30 mg/kg, ip administered 30 min prior to electro shock-challenge measured for 2 min relative to phenytoin
[3] = tested on: Mus musculus; assay: Anticonvulsant activity in Mus musculus albino (mouse) assessed as protection against maximal electroshock-induced seizures at 30 mg/kg, ip administered 30 min prior to electro shock-challenge measured for 2 min relative to control

## O=C1NC(=O)C(c2ccccc2)(c2ccccc2)N1 [PHENYTOIN]
[1]
  Activity: 79.95%

## CN(C)c1ccc(/C=C/C(=N\NC(=O)Nc2ccc(Br)cc2)c2ccc(O)cc2O)cc1
[2]
  Activity: 30.35%
[3]
  Activity: 24.27%

## CN(C)c1ccc(/C=C/C(=N\NC(=O)Nc2ccc(Br)cc2)c2ccccc2O)cc1
[2]
  Activity: 38.71%
[3]
  Activity: 30.95%

## COc1ccc(/C=C/C(=N\NC(=O)Nc2ccc(F)cc2)c2cc(O)ccc2O)cc1
[2]
  Activity: 56.54%
[3]
  Activity: 45.21%

## COc1ccc(/C=C/C(=N\NC(=O)Nc2ccc(F)cc2)c2ccccc2O)cc1
[2]
  Activity: 66.42%
[3]
  Activity: 53.11%

## O=C(N/N=C(\C=C\c1ccccc1O)c1cc(O)ccc1O)Nc1ccc(F)cc1
[2]
  Activity: 94.98%
[3]
  Activity: 75.94%

## COc1ccc(/C=C/C(=N\NC(=O)Nc2ccc(Br)cc2)c2cc(O)ccc2O)cc1
[2]
  Activity: 49.71%
[3]
  Activity: 39.75%

## COc1ccc(/C=C/C(=N\NC(=O)Nc2ccc(Br)cc2)c2ccccc2O)cc1
[2]
  Activity: 64.34%
[3]
  Activity: 51.44%

## O=C(N/N=C(\C=C\c1ccccc1O)c1cc(O)ccc1O)Nc1ccc(Br)cc1
[2]
  Activity: 94%
[3]
  Activity: 75.16%

## O=C(N/N=C(\C=C\c1ccccc1O)c1ccc(O)cc1O)Nc1ccc(F)cc1
[2]
  Activity: 92.62%
[3]
  Activity: 74.05%

## O=C(N/N=C(\C=C\c1ccc(O)cc1)c1ccccc1O)Nc1ccc(F)cc1
[2]
  Activity: 87.74%
[3]
  Activity: 70.15%

## O=C(N/N=C(\C=C\c1ccccc1O)c1ccccc1O)Nc1ccc(F)cc1
[2]
  Activity: 83.56%
[3]
  Activity: 66.81%

## O=C(N/N=C(\C=C\c1ccccc1)c1ccccc1O)Nc1ccc(F)cc1
[2]
  Activity: 28.96%
[3]
  Activity: 23.16%

## CN(C)c1ccc(/C=C/C(=N\NC(=O)Nc2ccc(F)cc2)c2ccc(O)cc2O)cc1
[2]
  Activity: 37.04%
[3]
  Activity: 29.62%

## O=C(N/N=C(\C=C\c1ccc(O)cc1)c1ccccc1O)Nc1ccc(Br)cc1
[2]
  Activity: 84.95%
[3]
  Activity: 67.92%

## O=C(N/N=C(\C=C\c1ccc(O)cc1)c1cc(O)ccc1O)Nc1ccc(F)cc1
[2]
  Activity: 99.72%
[3]
  Activity: 79.73%

## O=C(N/N=C(\C=C\c1ccccc1O)c1ccc(O)cc1O)Nc1ccc(Br)cc1
[2]
  Activity: 91.21%
[3]
  Activity: 72.93%

## CN(C)c1ccc(/C=C/C(=N\NC(=O)Nc2ccc(F)cc2)c2ccccc2O)cc1
[2]
  Activity: 45.26%
[3]
  Activity: 36.19%

## O=C(N/N=C(\C=C\c1ccccc1O)c1ccccc1O)Nc1ccc(Br)cc1
[2]
  Activity: 81.06%
[3]
  Activity: 64.81%

## O=C(N/N=C(\C=C\c1ccc(O)cc1)c1cc(O)ccc1O)Nc1ccc(Br)cc1
[2]
  Activity: 95.82%
[3]
  Activity: 76.61%

## O=C(N/N=C(\C=C\c1ccccc1)c1ccccc1O)Nc1ccc(Br)cc1
[2]
  Activity: 28.26%
[3]
  Activity: 22.6%
